Data: patent US9115088B2, “Anti-malarial agents” (MERCK PATENT GMBH, priority 2012, dated 2015)
Where a name gives a salt, the structure may show the parent alone. Read-outs that look alike come from different tables or passages of the source.

How the values were obtained:
[1] = test system: Plasmodium falciparum strain 3D7; assay: Plasmodium falciparum 3D7 growth inhibition, SYBRgreen fluorescence assay; type: cell-based; details: minimum of 3 independent experiments, read-out: EC50 (μM) for Pf 3D7
Procedure: Parasite cultures and cytotoxicity assay methodology for Plasmodium falciparum. Cultures of the widely-used malaria reference strain of chloroquinine-sensitive Plasmodium falciparum strain 3D7 were maintained in a 5% suspension of human red blood cells cultured in RPMI 1640 medium supplemented with 0.5% Albumax II (available from Gibco Life Technologies, San Diego, Calif.), 12 mM sodium bicarbonate, 0.2 mM hypoxanthine, (pH 7.3), and 20 mg/litre gentamicin at 37° C., in an atmosphere of 1% O2, 3% CO2 with a gas balance of nitrogen. […] Mefloquine was used as a drug control to monitor the quality of the assay (Z′=0.6 to 0.8, where Z′ is a measure of the discrimination between the positive and negative controls on a screen plate). Dose-response curves were determined from a minimum of 3 independent experiments. Compound bioactivity was expressed as EC50, the effective concentration of compound causing 50% parasite death.

[2] = test system: GFP-transfected Plasmodium berghei ANKA strain; assay: Plasmodium berghei mouse model, standard Peter's four-day test; type: in vivo; details: NMRI female mice, oral, 1 mg/kg 4x (once a day for four days); for % Reduction in parasitaemia: parasitaemia 24 h after last dose
Text: Plasmodium species that lead to human malarial infection are essentially unable to infect non-primate animal models. Rodent models as antimalarial drug discovery efficacy models for compound screening have been extensively used and validated for use through the identification of several antimalarial drugs such as mefloquine, and artemisinin derivatives. Such mouse models, including the Plasmodium berghei mouse model are an integral part of the drug discovery and development pathway. […] In particular experimental results have shown that a compound of formula (I) has improved potency, expressed as ED90, the dose required to eradicate 90% of the target infection [ED90 of 0.3-0.1 mg/kg], versus existing anti-malarial drugs.
Methodology. Using the standard Peter's test in NMRI female mice infected with GFP-transfected Plasmodium berghei ANKA strain were used. Test compounds were dosed orally once a day for four days at nine dose levels ([…], 0.03, 0.1, 0.3, 1, 3, 10, 30 mg/kg) and parasitaemia assessed 24 h after the last dose to determine ED90. The test protocol is described in detail Nature, 2004, 430, 900-904, the contents of which are included herein by reference.

[3] = Dynamic vapour sorption (DVS) moisture sorption; type: physicochemical; details: for hygroscopicity (DVS): 25° C.; for water uptake (DVS): 80% R.H./25° C.
Procedure: The moisture sorption of compounds of the invention was measured using a SMS (Surface Measurement Systems) DVS Intrinsic. The relative humidity at 25° C. was calibrated against deliquescence point of LiCl, Mg(NO3)2 and KCl. Parameters for DVS test are listed below. [table]

[4] = Thermogravimetric analysis (TGA); type: physicochemical; details: 10° C./min; example 1A heated to ~120° C., example 2 to ~150° C.
Procedure: Thermogravimetric Analysis (TGA) of compounds of the invention was conducted at 10° C./min ramping form room temperature to desired temperature in open platinum pans using at TA Instruments Q5000 TGA. The temperature was calibrated using nickel and weight using TA-supplied standard weights and verified against calcium oxalate monohydrate dehydration and decomposition. Typical parameters for TGA are described in Table 5. [table]

[5] = test system: Plasmodium falciparum; assay: P. falciparum SCID mouse model; type: in vivo; details: preliminary results
Text: Compounds can be further assessed using a murine model of Plasmodium falciparum malaria (the so-called P. falciparum SCID mouse model). The murine Plasmodium falciparum models require the engrafment of mice with human erythrocytes. The use NODscidlL2Rγ^null mice engrafted with human erythrocytes and competent P. falciparum strains have been validated for the preclinincal evaluation of antimalarials. The test protocol is described in detail at Antimicrobial Agents and Chemotherapy, 2009, 53 4533-4536, the contents of which are included herein by reference.

[6] = test system: sporogonic development in the mosquito; assay: Standard membrane feeding assay (SMFA); type: in vivo; details: preliminary results
Text: The standard membrane feeding assay (SMFA) is used to test the potential effects of compounds or drugs on sporogonic development in the mosquito and it is used to asses their potential for malaria transmission blocking in vivo. The test protocol is described in detail at Antimicrobial Agents and Chemotherapy, 2012, 56 3544-3548 and PLoS ONE 7(8): e42821, the contents of which are included herein by reference.

[7] = concentration causing 50% parasite death
[8] = Plasmodium falciparum, 3D7, concentration causing 50% parasite death

| SMILES | EC50 [1, 7] [µM] | Mean Survival [2] [days] | % Reduction in parasitaemia [2] [%] | EC50 [1, 8] [µM] | also measured |
| --- | --- | --- | --- | --- | --- |
| O=C(NCCN1CCCC1)c1cc(-c2ccc(CN3CCOCC3)cc2)nc2ccc(F)cc12 [Example 1, 6-Fluoro-2-[4-(morpholinomethyl)phenyl]-N-(2-pyrrolidin-1-ylethyl)quinoline-4-carboxamide] | 0.001 | 14 | 99.9 | – | solid form change post DVS testing [3]: No solid form change; hygroscopicity (DVS) [3]: non-hygroscopic; water uptake (DVS) [3]: 0.1%; weight loss on heating (TGA) [4]: < 0.1 wt %; in vivo behaviour in the P. falciparum SCID mouse model [5]: desirable in vivo behaviour; in vivo behaviour in standard membrane feeding assay [6]: desirable in vivo behaviour |
| O=C(NCCN1CCCC1)c1cc(-c2ccc(CN3CCOCC3)cc2)nc2ccc(F)cc12.O=C(O)/C=C/C(=O)O [Example 2, 6-Fluoro-2-[4-(morpholinomethyl)phenyl]-N-(2-pyrrolidin-1-ylethyl)quinoline-4-carboxamide; fumaric acid salt] | 0.007 | – | – | – | solid form change post DVS testing [3]: No solid form change; hygroscopicity (DVS) [3]: slightly hygroscopic; water uptake (DVS) [3]: ~1.2%; weight loss on heating (TGA) [4]: negligible weight loss |
| O=C(NCCN1CCCC1)c1cc(-c2ccc(CN3CCOCC3)cc2)nc2ccc(Cl)cc12 [Example 3, 6-chloro-2-[4-(morpholinomethyl)phenyl]-N-(2-pyrrolidin-1-ylethyl)quinoline-4-carboxamide] | – | – | – | 0.001 | – |
| O=C(NCCN1CCCC1)c1cc(-c2ccc(CN3CCOCC3)cc2)nc2ccccc12 [Example 4, 2-[4-(morpholinomethyl)phenyl]-N-(2-pyrrolidin-1-ylethyl)quinoline-4-carboxamide] | 0.001 | – | – | – | – |
| O=C(NCCN1CCCC1)c1cc(-c2ccc(CN3CCOCC3)cc2)nc2ccccc12 [Example 5, 2-[4-(morpholinomethyl)phenyl]-N-(2-pyrrolidin-1-ylethyl)quinoline-4-carboxamide; fumaric acid salt] | 0.003 | – | – | – | – |
| O=C(NCCN1CCCC1)c1cc(-c2ccc(CN3CCOCC3)c(F)c2)nc2ccc(F)cc12 [Example 6, 6-fluoro-2-(3-fluoro-4-(morpholinomethyl)phenyl)-N-(2-(pyrrolidin-1-yl)ethyl)quinoline-4-carboxamide] | – | 11 | 99.8 | 0.0007 | – |
| O=C(NCCN1CCCC1)c1cc(-c2ccc(CN3CCOCC3)cc2F)nc2ccc(F)cc12 [Example 7, 6-fluoro-2-(2-fluoro-4-(morpholinomethyl)phenyl)-N-(2-(pyrrolidin-1-yl)ethyl)quinoline-4-carboxamide] | – | 11 | 99.9 | 0.0005 | – |
| O=C(NCCN1CCCC1)c1cc(-c2cc(F)c(CN3CCOCC3)c(F)c2)nc2ccc(F)cc12 [Example 8, 2-(3,5-difluoro-4-(morpholinomethyl)phenyl)-6-fluoro-N-(2-(pyrrolidin-1-yl)ethyl)quinoline-4-carboxamide] | – | – | – | 0.004 | – |
| O=C(NCCN1CCCC1)c1cc(-c2ccc(CN3CCS(=O)(=O)CC3)cc2)nc2ccc(F)cc12 [Example 9, 2-(4-((1,1-dioxidothiomorpholino)methyl)phenyl)-6-fluoro-N-(2-(pyrrolidin-1-yl)ethyl)quinoline-4-carboxamide] | – | 7 | 99.0 | 0.0006 | – |
| O=C(NCCN1CCCC1)c1cc(-c2ccc(CN3CCOCC3)cc2Cl)nc2ccc(F)cc12 [Example 11, 2-(2-chloro-4-(morpholinomethyl)phenyl)-6-fluoro-N-(2-(pyrrolidin-1-yl)ethyl)quinoline-4-carboxamide; fumaric acid salt] | – | – | – | 0.003 | – |
